Our source for the Activity values is ChEMBL document CHEMBL1158647, “Synthesis and Pharmacology of Mangostin-3,6-di-O-glucoside” (1979).

Assay [1] relates to Canis familiaris. The experiment in a line: Increase in respiration in anesthetized Mongrel dog at 25 mg/kg, iv. Type of assay: functional, organism-based. On the set-up: dose 25 mg/kg. Particulars: Canis lupus familiaris.
The test system of assay [2] is Canis familiaris. The experiment in a line: Increase in carotid blood pressure in anesthetized Mongrel dog at 25 mg/kg, iv in presence of Priscol. Type of assay: functional, organism-based. Also noted: dose 25 mg/kg. Conditions: Canis lupus familiaris.
Assay [3] concerns Canis familiaris. The experiment in a line: Increase in carotid blood pressure in anesthetized Mongrel dog at 25 mg/kg, iv in presence of adrenaline. The class given is functional, organism-based. On the set-up: dose 25 mg/kg. Conditions: Canis lupus familiaris.
Assay [4] has as its system Mus musculus. Put plainly: Effect on gross behavioral activity in Swiss albino mouse assessed as CNS depression at 100 mg/kg, ip using smoked drum. The class given is functional, organism-based. Conditions: Central nervous system. On the set-up: dose 100 mg/kg.
The test system of assay [5] is Mus musculus. Put plainly: Effect on gross behavioral activity in Swiss albino mouse assessed as CNS depression at 200 mg/kg, ip using smoked drum. Type of assay: functional, organism-based. On the set-up: dose 200 mg/kg. Particulars: Central nervous system.
For assay [6], the system named is Mus musculus. The experiment in a line: Effect on gross behavioral activity in Swiss albino mouse assessed as CNS depression at 300 mg/kg, ip using smoked drum. Type of assay: functional, organism-based. On the set-up: dose 300 mg/kg. Particulars: Central nervous system.
The test system of assay [7] is Mus musculus. Put plainly: Effect on gross behavioral activity in Swiss albino mouse assessed as ptosis at 100 mg/kg, ip using smoked drum. Type of assay: functional, organism-based. On the set-up: dose 100 mg/kg.
Assay [8] concerns Mus musculus. The experiment in a line: Effect on gross behavioral activity in Swiss albino mouse assessed as sedation at 100 mg/kg, ip using smoked drum. Type of assay: functional, organism-based. On the set-up: dose 100 mg/kg.
The subject of assay [9] is Mus musculus. Put plainly: Effect on gross behavioral activity in Swiss albino mouse assessed as decrease in motor activity at 100 mg/kg, ip using smoked drum. Type of assay: functional, organism-based. On the set-up: dose 100 mg/kg.
Assay [10] relates to Mus musculus. The experiment in a line: Effect on gross behavioral activity in Swiss albino mouse assessed as ptosis at 200 mg/kg, ip using smoked drum. The class given is functional, organism-based. On the set-up: dose 200 mg/kg.
The subject of assay [11] is Mus musculus. Put plainly: Effect on gross behavioral activity in Swiss albino mouse assessed as sedation at 200 mg/kg, ip using smoked drum. Type of assay: functional, organism-based. Also noted: dose 200 mg/kg.
Assay [12] concerns Mus musculus. The experiment in a line: Effect on gross behavioral activity in Swiss albino mouse assessed as decrease in motor activity at 200 mg/kg, ip using smoked drum. On the set-up: dose 200 mg/kg. The class given is functional, organism-based.
Assay [13] deals with Mus musculus. The experiment in a line: Effect on gross behavioral activity in Swiss albino mouse assessed as spontaneous motor activity at 200 mg/kg, ip after 45 mins using smoked drum. The class given is functional, organism-based. On the set-up: dose 200 mg/kg.
Assay [14] deals with Mus musculus. The experiment in a line: Effect on gross behavioral activity in Swiss albino mouse assessed as spontaneous motor activity at 5 mg/kg, ip after 45 mins using smoked drum. The class given is functional, organism-based. On the set-up: dose 5 mg/kg.
The next assay deals with Rattus norvegicus. The experiment in a line: Increase in pentobarbital-induced sleeping time in Wistar albino rat administered 30 mins before pentobarbital challenge relative to control. Type of assay: functional.
In assay [15] the test system is Canis familiaris. Put plainly: Increase in carotid blood pressure in anesthetized Mongrel dog at 25 mg/kg, iv. Type of assay: functional, organism-based. On the set-up: dose 25 mg/kg. Particulars: Canis lupus familiaris.
Assay [16] concerns Canis familiaris. Put plainly: Increase in intestinal movement in anesthetized Mongrel dog at 25 mg/kg, iv. Type of assay: functional, organism-based. On the set-up: dose 25 mg/kg. Particulars: Canis lupus familiaris.

Activity calls are given as the source filed them. No cut-off for these calls is given here.

`COc1c(O[C@@H]2O[C@H](CO)[C@@H](O)[C@H](O)[C@H]2O)cc2oc3cc(O[C@@H]4O[C@H](CO)[C@@H](O)[C@H](O)[C@H]4O)c(CC=C(C)C)c(O)c3c(=O)c2c1CC=C(C)C`: the outcome in the assay with Canis familiaris [1], in the assay on Canis familiaris [2], in the assay on Canis familiaris [3], in the assay with Mus musculus [4], with Mus musculus [5] and in the assay with Mus musculus [6] was Active. The result in the assay with Mus musculus [7], in the assay on Mus musculus [8], in the assay on Mus musculus [9], in the assay with Mus musculus [10], in the assay on Mus musculus [11] and in the assay with Mus musculus [12] was Active. For the same compound, the result in the assay with Mus musculus [13], in the assay on Mus musculus [14], in the assay with Canis familiaris [15] and in the assay on Canis familiaris [16] was Active. This compound came in with an Activity in the assay with Rattus norvegicus of 53.81%.

With `C[C@H](N)Cc1ccccc1`, the outcome with Mus musculus [14] was Active.

Turning to `CN(C)CCCN1c2ccccc2Sc2ccc(Cl)cc21`, the outcome in the assay on Mus musculus [14] was Active.
